Holding throughout (test): [3H]GABA uptake assay, transient expression in tsA201 cells
What all share (type): cell-based

One assay deals with T1, BGT1 E52A (Homo sapiens, UniProt P48065, E52A).
T1 construct: expressed in transfected cells; host or cells: tsA201 (transformed HEK293), transient
T1 sequence (P48065 1-614 E52A): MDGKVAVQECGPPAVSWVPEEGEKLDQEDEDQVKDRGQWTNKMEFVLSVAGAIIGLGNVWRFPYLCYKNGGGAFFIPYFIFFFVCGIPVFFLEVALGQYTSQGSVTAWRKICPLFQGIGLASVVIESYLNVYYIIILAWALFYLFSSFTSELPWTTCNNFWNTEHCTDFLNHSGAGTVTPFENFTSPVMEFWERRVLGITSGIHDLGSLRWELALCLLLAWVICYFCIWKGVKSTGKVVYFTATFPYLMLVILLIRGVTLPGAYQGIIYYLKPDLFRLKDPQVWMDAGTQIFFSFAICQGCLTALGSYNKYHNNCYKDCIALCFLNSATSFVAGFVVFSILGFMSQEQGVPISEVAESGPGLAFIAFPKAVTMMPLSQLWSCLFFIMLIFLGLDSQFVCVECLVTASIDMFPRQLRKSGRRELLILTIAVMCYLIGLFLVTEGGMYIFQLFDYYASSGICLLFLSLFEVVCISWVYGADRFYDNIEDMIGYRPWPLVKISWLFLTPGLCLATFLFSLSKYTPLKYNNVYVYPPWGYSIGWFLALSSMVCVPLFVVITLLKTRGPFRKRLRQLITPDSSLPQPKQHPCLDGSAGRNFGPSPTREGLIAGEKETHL
The note with it: for IC50: BGT1 E52A; for Increase in activity compared to wildtype: BGT1 E52A vs BGT1 wt. Here is the method:
The residue Q299 in human BGT1 corresponds to leucine in all other GATs (human, rat, mouse), while E52 corresponds to tyrosine in GAT1 (human, rat, mouse) but is conserved among GAT2, GAT3 and BGT1 (human, rat, mouse) (Figure 6A) ([Kickinger et al., 2019]).
(§1) The tsA201 cell line (a transformed HEK293 cell line), the Flp-In CHO cell lines stably expressing human (h) GATs and the HEK293 cell line stably expressing human α1β2γ2 GABAA receptors have been described previously and were cultured accordingly ([Al-Khawaja et al., 2014]; [Falk-Petersen et al., 2020]). The tsA201 cell line used for transient expression of hGATs was transfected with DNA constructs (8 μg per 10 cm plate) using 40 μL PolyFect transfection reagent according to the manufacturer’s protocol (Qiagen).
(§2) Briefly, cells were seeded in white 96-well plates (White Opaque Tissue Culture (TC) plated 96-well Microplate) pre-coated with PDL. Medium was removed on the following day and cells washed with 100 µL/well assay buffer (HBSS supplemented with 20 mM HEPES, 1 mM CaCl2 and 1 mM MgCl2, pH 7.4). […] The cells were washed 3 times with 100 µL/well ice-cold assay buffer, 150 µL/well MicroScint™20 was subsequently added before the plate was shaken for at least 1 h. The plate was counted in a Packard TopCounter microplate scintillation counter (PerkinElmer) for 3 min per well. […] Data presented is the pooled data of at least three independent experiments with three technical replicates if not stated otherwise in figure legends. Concentration–response curves were fitted by non-linear regression to the sigmoidal concentration-response model with GraphPad Prism (version 9.0.0, GraphPad Software, San Diego, CA, United States) as described ([Lie et al., 2020]).

The next assay has as its target T2, BGT1 wt (Homo sapiens, UniProt P48065).
T2 construct: expressed in transfected cells; host or cells: tsA201 (transformed HEK293), transient
T2 sequence (P48065 1-614): T1 sequence (P48065 1-614 E52A) with A52E
The note with it: for IC50: BGT1 wt, tsA201 cells; for Selectivity ratio for BGT1 over GAT3: [3H]GABA uptake IC50 GAT3 wt / BGT1 wt.
Description: (§3) FIGURE 6 (A) Pocket alignment of the orthosteric site of the four GAT subtypes colored according to the default ClustalX color scheme ([Larkin et al., 2007]). The pocket was defined as all corresponding GAT residues (15 in total) that are within a distance of 4.5 Å of the co-crystallized ligand leucine in the homologous LeuT crystal structure (PDB ID 2A65) ([Yamashita et al., 2005]) according to the alignment by Kickinger et al. ([Kickinger et al., 2019]). The mutated residues in BGT1 and the corresponding residues in GAT1-3 are indicated by a red box. The numbering of all residues within the orthosteric pocket can be found in the Supplementary Table S1.
as §1, §2

In the next assay the target is T3, GAT3 wt (Homo sapiens, UniProt P48066).
T3 construct: expressed in transfected cells; host or cells: tsA201 (transformed HEK293), transient
T3 sequence (P48066 1-632): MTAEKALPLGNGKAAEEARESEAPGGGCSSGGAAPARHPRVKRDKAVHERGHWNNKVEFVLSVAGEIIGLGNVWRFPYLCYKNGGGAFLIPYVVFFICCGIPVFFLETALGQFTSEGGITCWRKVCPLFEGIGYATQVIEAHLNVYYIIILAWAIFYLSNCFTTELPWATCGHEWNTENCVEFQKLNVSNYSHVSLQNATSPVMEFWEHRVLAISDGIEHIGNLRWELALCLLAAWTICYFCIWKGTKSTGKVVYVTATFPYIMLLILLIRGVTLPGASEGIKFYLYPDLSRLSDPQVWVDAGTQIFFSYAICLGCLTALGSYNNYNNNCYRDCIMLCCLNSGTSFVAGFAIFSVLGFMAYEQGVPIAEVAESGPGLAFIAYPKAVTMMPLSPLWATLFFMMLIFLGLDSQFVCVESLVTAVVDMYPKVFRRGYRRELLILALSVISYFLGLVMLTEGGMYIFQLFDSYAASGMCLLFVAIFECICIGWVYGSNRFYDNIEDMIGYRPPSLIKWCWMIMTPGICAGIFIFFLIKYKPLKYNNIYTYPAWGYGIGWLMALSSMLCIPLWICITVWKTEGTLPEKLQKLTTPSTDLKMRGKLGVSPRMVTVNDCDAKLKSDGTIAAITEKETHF
Description: as §3, §1, §2

SMILES strings stand for the structures. Changes are numbered by the printed parent chain. Like-named read-outs stand apart in the source and are kept apart here.

As for `N[C@@]12CC[C@H](C(=O)O)[C@@H]1C2` [bicyclo-GABA, (1S,2S,5R)-5-aminobicyclo[3.1.0]hexane-2-carboxylic acid], the IC50 is around 0.04 µM against BGT1 E52A; 0.04 µM at BGT1 E52A (tsA201 cells); 1.5 µM on BGT1 wt (30 nM [3H]GABA, read-out: IC50); 1.26 µM on BGT1 wt (read-out: pIC50 ± S.E.M. (converted)); 610 µM at GAT3 wt. Further, the “Increase in activity compared to wildtype” value on BGT1 E52A is given as 38 times. At BGT1 wt, the “Selectivity ratio for BGT1 over GAT3” value is reported as 407.
Take `CN[C@@]12CC[C@H](C(=O)O)[C@@H]1C2` [compound 2]: on BGT1 E52A, the “Increase in activity compared to wildtype” value turned out to be 82 times. Also, the IC50 against BGT1 E52A (tsA201 cells) came out at 0.12 µM; on BGT1 wt (30 nM [3H]GABA, read-out: IC50), 9.8 µM; on GAT3 wt, 211 µM. Further, the “Selectivity ratio for BGT1 over GAT3” value at BGT1 wt is 22.
